Drawing on patent publication US9765035B2 (priority 2013, dated 2017), this text covers IC50 and EC30 for 24 compounds.

The structures appear in SMILES notation. Read-outs that look alike come from different tables or passages of the source.

The target of one assay is T1, human PRMT1 (Homo sapiens, UniProt Q99873).
T1 construct: GST-tagged PRMT1; made in house; host or cells: High Five insect cells (baculovirus)
In words: biochemical. The text has this:
General Materials. S-adenosylmethionine (SAM), S-adenosylhomocysteine (SAH), bicine, Tween20, dimethylsulfoxide (DMSO), bovine skin gelatin (BSG), and Tris(2-carboxyethyl)phosphine hydrochloride solution (TCEP) were purchased from Sigma-Aldrich at the highest level of purity possible. ^3H-SAM was purchase from American Radiolabeled Chemicals with a specific activity of 80 Ci/mmol. 384-well streptavidin Flashplates were purchased from PerkinElmer.
Substrates. Peptide representative of human histone H4 residues 36-50 was synthesized with an N-terminal linker-affinity tag motif and a C-terminal amide cap by 21st Century Biochemicals. The peptide was purified by high-performance liquid chromatography (HPLC) to greater than 95% purity and confirmed by liquid chromatography mass spectrometry (LC-MS). The sequence was Biot-Ahx-[…]-amide (SEQ ID NO.:1).
Molecular Biology: Full-length human PRMT1 isoform 1 (NM_001536.5) transcript clone was amplified from an HEK 293 cDNA library, incorporating flanking 5′ sequence encoding a FLAG tag ([…]) (SEQ ID NO.:2) fused directly to Met 1 of PRMT1. The amplified gene was subcloned into pFastBacI (Life Technologies) modified to encode an N-terminal GST tag and a TEV cleavage sequence
Protein Expression. Recombinant baculovirus were generated according to Bac-to-Bac kit instructions (Life Technologies). Protein over-expression was accomplished by infecting exponentially growing High Five insect cell culture at 1.5×10^6 cell/ml with 1:100 ratio of virus. Infections were carried out at 27° C. for 48 hours, harvested by centrifugation, and stored at −80° C. for purification.
Protein Purification. […] GST-tagged PRMT1 was eluted with 50 mM Tris, 2 mM glutathione, pH 7.8, dialysed in buffer A and concentrated to 1 mg/mL. The purity of recovered protein was 73%. Reference: Wasilko, D. J. and S. E. Lee: “TIPS: titerless infected-cells preservation and scale-up” Bioprocess J., 5 (2006), pp. 29-32.
General Procedure for PRMT1 Enzyme Assays on Peptide Substrates. The assays were all performed in a buffer consisting of 20 mM Bicine (pH=7.6), 1 mM TCEP, 0.005% BSG, and 0.002% Tween 20, prepared on the day of use. Compounds in 100% DMSO (1 ul) were spotted into a polypropylene 384-well V-bottom plates (Greiner) using a Platemate Plus outfitted with a 384-channel head (Thermo Scientific). DMSO (1 ul) was added to Columns 11, 12, 23, 24, rows A-H for the maximum signal control and 1 ul of SAH, a known product and inhibitor of PRMT1, was added to columns 11, 12, 23, 24, rows I-P for the minimum signal control. A cocktail (40 ul) containing the PRMT1 enzyme was added by Multidrop Combi (Thermo-Fisher). The compounds were allowed to incubate with PRMT1 for 30 min at room temperature, then a cocktail (10 ul) containing SAM and peptide was added to initiate the reaction (final volume=51 ul). The final concentrations of the components were as follows: PRMT1 was 0.5 nM, ^3H-SAM was 200 nM, non-radiolabeled SAM was 1.5 uM, peptide was 20 nM, SAH in the minimum signal control wells was 1 mM, and the DMSO concentration was 2%. The assays were stopped by the addition of non-radiolabeled SAM (10 ul) to a final concentration of 300 uM, which dilutes the ^3H-SAM to a level where its incorporation into the peptide substrate is no longer detectable. 50 ul of the reaction in the 384-well polypropylene plate was then transferred to a 384-well Flashplate and the biotinylated peptides were allowed to bind to the streptavidin surface for at least 1 hour before being washed once with 0.1% Tween20 in a Biotek EL×405 plate washer. The plates were then read in a PerkinElmer TopCount plate reader to measure the quantity of ^3H-labeled peptide bound to the Flashplate surface, measured as disintegrations per minute (dpm) or alternatively, referred to as counts per minute (cpm).
Where dpm=disintegrations per minute, cmpd=signal in assay well, and min and max are the respective minimum and maximum signal controls. […]

The subject of assay [1] is RKO cells, mono-methyl arginine. In words: RKO Methylation Assay (In Cell Western for mono-methyl arginine). Format: cell-based. Conditions: Homo sapiens. The text has this: RKO adherent cells were purchased from ATCC (American Type Culture Collection), Manassas, Va., USA. DMEM/Glutamax medium, penicillin-streptomycin, heat inactivated fetal bovine serum, 0.05% trypsin and D-PBS were purchased from Life Technologies, Grand Island, N.Y., USA. Odyssey blocking buffer, 800CW goat anti-rabbit IgG (H+L) antibody, and Licor Odyssey infrared scanner were purchased from Licor Biosciences, Lincoln, Nebr., USA. Mono-methyl arginine antibody was purchased from Cell Signaling Technology, Danvers, Mass., USA. Methanol was purchased from VWR, Franklin, Mass., USA. 10% Tween 20 was purchased from KPL, Inc., Gaithersburg, Md., USA. DRAQ5 was purchased from Biostatus Limited, Leicestershire, UK.
RKO adherent cells were maintained in growth medium (DMEM/Glutamax medium supplemented with 10% v/v heat inactivated fetal bovine serum and 100 units/mL penicillin-streptomycin) and cultured at 37° C. under 5% CO2.
Cell Treatment, in Cell Western (ICW) for Detection of Mono-Methyl Arginine and DNA Content. […] Compound (100 nL) from a 96-well source plate was added directly to 384 well cell plate. Plates were incubated at 37° C., 5% CO2 for 72 hours. After three days of incubation, plates were brought to room temperature outside of the incubator for ten minutes and blotted on paper towels to remove cell media. 50 μL of ice cold 100% methanol was added directly to each well and incubated for 30 min at room temperature. After 30 min, plates were transferred to a Biotek EL406 plate washer and washed 2 times with 100 μL per well of wash buffer (1×PBS). Next 60 μL per well of Odyssey blocking buffer (Odyssey Buffer with 0.1% Tween 20 (v/v)) were added to each plate and incubated 1 hour at room temperature. Blocking buffer was removed and 20 μL per well of primary antibody was added (mono-methyl arginine diluted 1:200 in Odyssey buffer with 0.1% Tween 20 (v/v)) and plates were incubated overnight (16 hours) at 4° C. Plates were washed 5 times with 100 μL per well of wash buffer. […] The plates were washed 5 times with 100 μL per well wash buffer then 2 times with 100 μL per well of water. Plates were allowed to dry at room temperature then imaged on the Licor Odyssey machine which measures integrated intensity at 700 nm and 800 nm wavelengths. Both 700 and 800 channels were scanned.
Calculations: First, the ratio for each well was determined by:
Each plate included fourteen control wells of DMSO only treatment (minimum activation) as well as fourteen control wells for maximum activation treated with 20 μM of a reference compound. The average of the ratio values for each control type was calculated and used to determine the percent activation for each test well in the plate. Reference compound was serially diluted three-fold in DMSO for a total of nine test concentrations, beginning at 20 μM. Percent activation was determined and EC30 curves were generated using triplicate wells per concentration of compound.

[2] abbreviates: biochemical evaluation, peptide substrate, read-out: PRMT1 IC50.
Setting [3] is: single experiment or average of multiple experiments, read-out: PRMT1 biochemical evaluation (numerical).
Setting [4] is: In Cell Western EC30, RKO cells, 72 hours, single experiment or average of multiple experiments, read-out: RGG ICW.
[5] abbreviates: In Cell Western, RKO cells, 72 hours, read-out: RGG ICW EC30.
The mark [6] stands for this setting: RKO, 72 h, read-out: RGG ICW EC30.

T1 sequence (Q99873 other isoform, or with tags, fused parts or gaps): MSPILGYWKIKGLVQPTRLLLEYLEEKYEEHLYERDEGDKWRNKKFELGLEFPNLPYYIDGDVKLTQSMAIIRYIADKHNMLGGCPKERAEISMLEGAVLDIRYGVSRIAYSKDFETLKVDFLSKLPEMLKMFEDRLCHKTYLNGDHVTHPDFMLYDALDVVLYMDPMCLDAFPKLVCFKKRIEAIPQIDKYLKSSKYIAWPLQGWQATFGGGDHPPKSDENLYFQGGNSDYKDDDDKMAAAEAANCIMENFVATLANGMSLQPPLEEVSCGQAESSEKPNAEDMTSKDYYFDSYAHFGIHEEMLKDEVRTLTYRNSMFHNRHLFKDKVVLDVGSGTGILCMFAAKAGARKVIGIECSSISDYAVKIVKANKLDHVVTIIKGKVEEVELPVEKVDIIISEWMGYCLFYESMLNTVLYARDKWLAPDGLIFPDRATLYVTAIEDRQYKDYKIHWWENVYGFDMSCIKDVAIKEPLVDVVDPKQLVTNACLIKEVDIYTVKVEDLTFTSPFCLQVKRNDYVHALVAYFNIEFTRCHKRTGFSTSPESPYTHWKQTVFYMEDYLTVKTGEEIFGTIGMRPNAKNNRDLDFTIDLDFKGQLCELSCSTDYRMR

For `CN(CCN)Cc1n[nH]c2ccc(OCc3ccccc3)cc12` [Compound 1B], the results for the IC50 on human PRMT1 (setting [2]) and at human PRMT1 (setting [3]) were less than 100 nM and 3.59 nM, respectively. The EC30 was 1710 nM in assay [1] (setting [4]) and less than 3000 nM in assay [1] (setting [5]).
As to `CNCCN(C)Cc1n[nH]c2ccc(OCCCOC)cc12` [Compound 6], the IC50 at human PRMT1 (setting [2]) was less than 100 nM; on human PRMT1 (setting [3]), 19 nM. Moreover, the EC30 in assay [1] (setting [4]) was 1550 nM; in assay [1] (setting [5]), less than 3000 nM.
Turning to `CNCCN(C)Cc1n[nH]c2cccc(OCCC(C)C)c12` [Compound 31], the IC50 was not above 100 nM at human PRMT1 (setting [2]) and 46.5 nM on human PRMT1 (setting [3]). Moreover, the results for the EC30 in assay [1] (setting [4]) and in assay [1] (setting [5]) were 8240 nM and 3010 to 12000 nM, respectively.
On to `CNCCN(C)Cc1n[nH]c2ccc(OCc3ccn(C)n3)cc12` [Compound 20], for which the figures for the IC50 on human PRMT1 (setting [2]) and on human PRMT1 (setting [3]) were less than 100 nM and 6.33 nM, respectively. The EC30 is 710 nM in assay [1] (RKO, 72 h, read-out: RGG ICW) and less than 3000 nM in assay [1] (setting [6]).
As for `CNCCN(C)Cc1nn(C)c2ccc(OCC(C)C)cc12` [Compound 3, N^1-((5-iso-butoxy-1-methyl-1H-indazol-3-yl)methyl)-N^1,N^2-dimethylethane-1,2-diamine], the IC50 was less than 100 nM at human PRMT1 (setting [2]) and 56.2 nM at human PRMT1 (setting [3]). Besides, the EC30 is 14000 nM in assay [1] (setting [4]) and more than 12000 nM in assay [1] (setting [5]).
As for `CNCCN(C)Cc1n[nH]c2ccc(OCCOC)cc12` [Compound 5, N^1-((5-(2-methoxyethoxy)-1H-indazol-3-yl)methyl)-N^1,N^2-dimethylethane-1,2-diamine], the IC50 at human PRMT1 (setting [2]) was less than 100 nM; on human PRMT1 (setting [3]), 38.5 nM. The EC30 in assay [1] (setting [4]) was 11400 nM; in assay [1] (setting [5]), 3010 to 12000 nM.
For `CNCCN(C)Cc1n[nH]c2ccc(OCc3ccn(CC(C)C)n3)cc12` [Compound 33] the same measures were 101 to 1000 nM, 44.5 nM, 9060 nM and 3010 to 12000 nM.
On to `CNCCN(C)Cc1n[nH]c2ccc(Oc3cccc(C#N)c3)cc12` [Compound 28], for which the IC50 is less than 100 nM on human PRMT1 (setting [2]) and 22.5 nM on human PRMT1 (setting [3]). For the same compound, the EC30 was 4620 nM in assay [1] (RKO, 72 h, read-out: RGG ICW) and 3010 to 12000 nM in assay [1] (setting [6]).
Consider `CNCCN(C)Cc1n[nH]c2ccc(Oc3cccc(OC)c3)cc12` [Compound 22], for which the IC50 at human PRMT1 (setting [2]) is less than 100 nM; at human PRMT1 (setting [3]), 11.9 nM. For the same compound, the EC30 in assay [1] (setting [4]) was 1490 nM; in assay [1] (setting [5]), less than 3000 nM.
As to `CNCCN(C)Cc1n[nH]c2ccc(OCc3ccc(C(C)=O)cc3)cc12` [Compound 23], the results for the IC50 on human PRMT1 (setting [2]) and at human PRMT1 (setting [3]) were less than 100 nM and 12 nM, respectively. The EC30 in assay [1] (setting [4]) is 1760 nM; in assay [1] (setting [5]), less than 3000 nM.
`CNCCN(C)Cc1n[nH]c2ccc(OC)cc12` [Compound 35]: the figures for the IC50 at human PRMT1 (setting [2]) and at human PRMT1 (setting [3]) were 3010 to 10000 nM and 187 nM, respectively. In addition, the EC30 is more than 20000 nM in assay [1] (setting [4]) and more than 12000 nM in assay [1] (setting [5]).
With `CNCCN(C)Cc1c2cc(OCc3ccc(C#N)cc3)ccc2nn1C1CCOCC1` [Compound 53], the IC50 at human PRMT1 (setting [2]) was 3010 to 10000 nM; on human PRMT1 (setting [3]), 1760 nM.
For `CNCCN(C)Cc1n[nH]c2ccc(OC3CCN(C(C)=O)CC3)cc12` [Compound 58, 1-(4-((3-((methyl(2-(methylamino)ethyl)amino)methyl)-1H-indazol-5-yl)oxy)piperidin-1-yl)ethan-1-one] the same measures were 101 to 1000 nM and 57.9 nM.
Turning to `CNCCN(C)Cc1n[nH]c2ccc(C3=CCOCC3)cc12` [Compound 45], the IC50 at human PRMT1 (setting [2]) is less than 100 nM; on human PRMT1 (setting [3]), 37.4 nM.
In the case of `CNCCN(C)Cc1n[nH]c2ccc(C3CCOCC3)cc12` [Compound 44, N^1,N^2-dimethyl-N^1-((5-(tetrahydro-2H-pyran-4-yl)-1H-indazol-3-yl)methyl)ethane-1,2-diamine], the IC50 is less than 100 nM at human PRMT1 (setting [2]) and 43.6 nM at human PRMT1 (setting [3]).
On to `CNCCN(C)Cc1n[nH]c2ccc(OCc3cccc(C(C)(C)C)c3)cc12` [Compound 74], for which the figures for the IC50 at human PRMT1 (setting [2]) and on human PRMT1 (setting [3]) were 101 to 1000 nM and 23 nM, respectively.
Consider `CNCCN(C)Cc1n[nH]c2ccc(OCC3CCN(C(C)=O)CC3)cc12` [Compound 51], for which the results for the IC50 on human PRMT1 (setting [2]) and on human PRMT1 (setting [3]) were 1010 to 3000 nM and 5520 nM, respectively.
In the same order, the values of `CNCCN(C)Cc1n[nH]c2ccc(OCc3ccc(C(F)(F)F)cc3)cc12` [Compound 68] are 101 to 1000 nM and 91.5 nM.
For `CNCCN(C)Cc1n[nH]c2ccc(Oc3ccc(C)cc3)cc12` [Compound 55] the same measures were less than 100 nM and 6550 nM.
As to `CCOc1ccc2[nH]nc(CN(C)CCNC)c2c1` [Compound 63], the IC50 at human PRMT1 (setting [2]) is 101 to 1000 nM; at human PRMT1 (setting [3]), 98.6 nM.
For the compound `CNCCN(C)Cc1n[nH]c2ccc(C3CCCCC3)cc12` [Compound 47, N^1-((5-cyclohexyl-1H-indazol-3-yl)methyl)-N^1,N^2-dimethylethane-1,2-diamine], the figures for the IC50 on human PRMT1 (setting [2]) and on human PRMT1 (setting [3]) were not above 100 nM and 55.5 nM, respectively.
Turning to `CNCCN(C)Cc1n[nH]c2ccc(OCC3CCOCC3)cc12` [Compound 50], the IC50 at human PRMT1 (setting [2]) is 3010 to 10000 nM; on human PRMT1 (setting [3]) it was 11 nM.
For the compound `CNCCN(C)Cc1n[nH]c2ccc(OCc3ccc(C(C)(C)C)cc3)cc12` [Compound 71], the results for the IC50 on human PRMT1 (setting [2]) and at human PRMT1 (setting [3]) were 101 to 1000 nM and 203 nM, respectively.
As to `CNCCN(C)Cc1n[nH]c2ccc(Oc3ccc(OC(C)C)cc3)cc12` [Compound 61], the values for the IC50 at human PRMT1 (setting [2]) and on human PRMT1 (setting [3]) were less than 100 nM and 40.8 nM, respectively.
